From patent publication EP4707280A1, “1,4-CINEOLE DERIVATIVE AND INTERMEDIATE THEREOF, HERBICIDE CONTAINING SAID DERIVATIVE AS ACTIVE INGREDIENT, METHOD FOR USING HERBICIDE, AND METHOD FOR PREPARING AGROCHEMICAL COMPOSITION” (HOKKO CHEMICAL INDUSTRY CO., LTD., priority 2023, dated 2024)

Key:
Format in all cases: in vivo
[1] = system: Echinochloa crus-galli var. formosensis; experiment: Test Example 6: herbicidal effect test by application during growth period of paddy rice (low dose); settings: Echinochloa crus-galli; 7.5 g per 10 ares; applied seven days after sowing, flooded pots; 14 days after application; read-out: weed inhibition rate
Method in brief: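 Low-dose water application, 7.5 g a.i. per 10 ares, given by dropper into flooded pots (about 3 cm depth) 7 days after sowing of 30 weed seeds each at 0–1 cm. Evaluation of inhibition (%) took place 14 days later, duplicate per rate.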

[2] = system: Scirpus juncoides; experiment: Test Example 2: herbicidal effect test by application during growth period of paddy rice; settings: Schoenoplectiella juncoides; 120 g per 10 ares; applied seven days after sowing, flooded pots; 14 days after application; read-out: weed inhibition rate
Method in brief: (§1)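 Greenhouse pots of flooded paddy soil, seeded shallowly with 30 seeds per weed, are treated on day 7 by dropper with diluted emulsifiable concentrate equal to 120 g a.i./10 a. Duplicate pots are scored for inhibition rate 14 days post-application.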

[3] = system: Echinochloa crus-galli var. formosensis; experiment: as above; settings: Echinochloa crus-galli; 120 g per 10 ares; applied seven days after sowing, flooded pots; 14 days after application; read-out: weed inhibition rate
Method in brief: as §1

[4] = system: Digitaria ciliaris; experiment: Test Example 4: herbicidal effect test by stem and leaf treatment in upland field; settings: Digitaria ciliaris; 120 g per 10 ares; sprayed seven days after sowing, upland soil; 14 days after application; read-out: weed inhibition rate
[5] = system: Scirpus juncoides; experiment: Test Example 1: herbicidal effect test by soil application in paddy rice; settings: Schoenoplectiella juncoides, soil, 336 h; 120 g active ingredient per 10 ares; applied immediately after sowing, flooded pots; 14 days after application; read-out: weed inhibition rate
Method in brief: (§2)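 Weeds sown 0–1 cm deep (30 seeds each) into fertilized, puddled paddy soil in Wagner pots. Pots are flooded immediately, water held near 3 cm, and the diluted emulsifiable concentrate is dripped in at once, delivering 120 g active ingredient per 10 ares under glass-greenhouse management.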

[6] = system: Echinochloa crus-galli var. formosensis; experiment: as above; settings: Echinochloa crus-galli, soil, 336 h; 120 g active ingredient per 10 ares; applied immediately after sowing, flooded pots; 14 days after application; read-out: weed inhibition rate
Method in brief: as §2

[7] = system: Echinochloa crus-galli; experiment: Test Example 8: herbicidal effect test by stem and leaf treatment in upland field (low dose); settings: Echinochloa crus-galli; 7.5 g per 10 ares; sprayed seven days after sowing, upland soil; 14 days after application; read-out: weed inhibition rate
[8] = system: Digitaria ciliaris; experiment: as above; settings: Digitaria ciliaris; 7.5 g per 10 ares; sprayed seven days after sowing, upland soil; 14 days after application; read-out: weed inhibition rate
[9] = system: Echinochloa crus-galli; experiment: Test Example 7: herbicidal effect test by soil application in upland field (low dose); settings: Echinochloa crus-galli, 7.5 g per 10 ares, sprayed one day after sowing, 14 days after application, read-out: weed inhibition rate
Method in brief: (§3)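 Duplicate pots of alluvial loam, seeds incorporated in the surface 1 cm. Soil surface sprayed 1 d after sowing (EC in water, 100 L/10 a; 7.5 g a.i./10 a). Endpoint: % inhibition, day 14.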

[10] = system: Digitaria ciliaris; experiment: as above; settings: Digitaria ciliaris, 7.5 g per 10 ares, sprayed one day after sowing, 14 days after application, read-out: weed inhibition rate
Method in brief: as §3

[11] = system: Echinochloa crus-galli; experiment: Test Example 3: herbicidal effect test by soil application in upland field; settings: Echinochloa crus-galli, 120 g per 10 ares, sprayed one day after sowing, 14 days after application, read-out: weed inhibition rate
Method in brief: (§4)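 Pre-emergence test: seeds mixed into top 1 cm of alluvial loam upland soil in pots; emulsifiable concentrate diluted in water sprayed on soil one day after sowing at 100 L/10 a, 120 g a.i./10 a. Weed inhibition rate (%) scored at 14 days, in duplicate.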

[12] = system: Digitaria ciliaris; experiment: as above; settings: Digitaria ciliaris, 120 g per 10 ares, sprayed one day after sowing, 14 days after application, read-out: weed inhibition rate
Method in brief: as §4

[13] = system: Echinochloa crus-galli var. formosensis; experiment: Test Example 5: herbicidal effect test by soil application in paddy rice (low dose); settings: Echinochloa crus-galli, soil, 336 h; 7.5 g per 10 ares; applied immediately after sowing, flooded pots; 14 days after application; read-out: weed inhibition rate
Method in brief: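 7.5 g a.i./10 a applied by dropper into ~3 cm floodwater immediately post-sowing (seeds 0–1 cm, 30 per species; puddled fertilized paddy soil, glasshouse). Duplicates; day-14 inhibition %.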

[14] = system: Echinochloa crus-galli; experiment: Test Example 4: herbicidal effect test by stem and leaf treatment in upland field; settings: Echinochloa crus-galli; 120 g per 10 ares; sprayed seven days after sowing, upland soil; 14 days after application; read-out: weed inhibition rate

CC(C)[C@]12C[C@@H](OCc3cccs3)[C@](C)(C[C@@H]1Cl)O2 [1-661, (1R,2S,4S,5R)-2-chloro-1-isopropyl-4-methyl-5-(2-thienylmethoxy)-7-oxabicyclo[2.2.1]heptane]
≥ 80%: inhibition at 75 g/ha [1] | inhibition at 1200 g/ha [2] | inhibition at 1200 g/ha [3] | inhibition at 1200 g/ha [4] | pest or weed control at 1200 g/ha [5] | pest or weed control at 1200 g/ha [6] | inhibition at 75 g/ha [7] | inhibition at 75 g/ha [8] | inhibition at 75 g/ha [9] | inhibition at 75 g/ha [10] | inhibition at 1200 g/ha [11] | inhibition at 1200 g/ha [12] | inhibition at 75 g/ha [13] | inhibition at 1200 g/ha [14]

CC(C)[C@]12C[C@@H](OCc3ccsc3)[C@](C)(C[C@@H]1Cl)O2 [1-662, (1R,2S,4S,5R)-2-chloro-1-isopropyl-4-methyl-5-(3-thienylmethoxy)-7-oxabicyclo[2.2.1]heptane]
≥ 80%: inhibition at 75 g/ha [1] | inhibition at 1200 g/ha [2] | inhibition at 1200 g/ha [3] | inhibition at 1200 g/ha [4] | pest or weed control at 1200 g/ha [5] | pest or weed control at 1200 g/ha [6] | inhibition at 75 g/ha [7] | inhibition at 75 g/ha [8] | inhibition at 75 g/ha [9] | inhibition at 75 g/ha [10] | inhibition at 1200 g/ha [11] | inhibition at 1200 g/ha [12] | inhibition at 75 g/ha [13] | inhibition at 1200 g/ha [14]

CC(C)=CCO[C@@H]1C[C@]2(C(C)C)O[C@@]1(C)C[C@@H]2I [1-732, (1R,2S,4S,5R)-2-iodo-1-isopropyl-4-methyl-5-(3-methylbut-2-enoxy)-7-oxabicyclo[2.2.1]heptane]
≥ 80%: inhibition at 75 g/ha [1] | inhibition at 1200 g/ha [2] | inhibition at 1200 g/ha [3] | inhibition at 1200 g/ha [4] | pest or weed control at 1200 g/ha [5] | pest or weed control at 1200 g/ha [6] | inhibition at 75 g/ha [7] | inhibition at 75 g/ha [8] | inhibition at 75 g/ha [9] | inhibition at 75 g/ha [10] | inhibition at 1200 g/ha [11] | inhibition at 1200 g/ha [12] | inhibition at 75 g/ha [13] | inhibition at 1200 g/ha [14]

CC#CCO[C@@H]1C[C@]2(C(C)C)O[C@@]1(C)C[C@@H]2I [1-734, (1R,2S,4S,5R)-5-but-2-ynoxy-2-iodo-1-isopropyl-4-methyl-7-oxabicyclo[2.2.1]heptane]
≥ 80%: inhibition at 75 g/ha [1] | inhibition at 1200 g/ha [2] | inhibition at 1200 g/ha [3] | inhibition at 1200 g/ha [4] | pest or weed control at 1200 g/ha [5] | pest or weed control at 1200 g/ha [6] | inhibition at 75 g/ha [7] | inhibition at 75 g/ha [8] | inhibition at 75 g/ha [9] | inhibition at 75 g/ha [10] | inhibition at 1200 g/ha [11] | inhibition at 1200 g/ha [12] | inhibition at 75 g/ha [13] | inhibition at 1200 g/ha [14]

CC(C)[C@]12C[C@@H](OCc3ccccc3)[C@](C)(C[C@@H]1I)O2 [1-740, (1R,2S,4S,5R)-5-benzyloxy-2-iodo-1-isopropyl-4-methyl-7-oxabicyclo[2.2.1]heptane]
≥ 80%: inhibition at 75 g/ha [1] | inhibition at 1200 g/ha [2] | inhibition at 1200 g/ha [3] | inhibition at 1200 g/ha [4] | pest or weed control at 1200 g/ha [5] | pest or weed control at 1200 g/ha [6] | inhibition at 75 g/ha [7] | inhibition at 75 g/ha [8] | inhibition at 75 g/ha [9] | inhibition at 75 g/ha [10] | inhibition at 1200 g/ha [11] | inhibition at 1200 g/ha [12] | inhibition at 75 g/ha [13] | inhibition at 1200 g/ha [14]
